The target in test [1] is T1, E. coli TrxR (thioredoxin reductase) (Escherichia coli, UniProt P0A9P4). On the set-up: gene trxB.
For test [2], the target named is T1, E. coli TrxR (thioredoxin reductase). Description: Trx-coupled DTNB reduction assay, purified recombinant enzyme; activity recovered after desalting. On the set-up: gene trxB; GenBank PSY25180.1, residues 1–321, His6-SUMO tag removed. The format is biochemical.

pIC50: −log10 of the molar value. Read-outs that look alike come from different tables or passages of the source.

T1 sequence (P0A9P4 whole entry, the tested form may be a part): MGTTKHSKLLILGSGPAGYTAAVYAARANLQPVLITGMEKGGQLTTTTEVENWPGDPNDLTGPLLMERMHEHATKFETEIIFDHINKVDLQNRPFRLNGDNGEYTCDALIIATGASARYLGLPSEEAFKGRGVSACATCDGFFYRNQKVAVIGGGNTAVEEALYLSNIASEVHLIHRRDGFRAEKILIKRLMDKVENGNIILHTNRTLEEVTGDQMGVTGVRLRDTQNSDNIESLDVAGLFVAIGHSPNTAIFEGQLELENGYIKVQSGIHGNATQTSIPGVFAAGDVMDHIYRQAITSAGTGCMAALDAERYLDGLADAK
T1 sequence (P0AA25 whole entry, further chain, the tested form may be a part): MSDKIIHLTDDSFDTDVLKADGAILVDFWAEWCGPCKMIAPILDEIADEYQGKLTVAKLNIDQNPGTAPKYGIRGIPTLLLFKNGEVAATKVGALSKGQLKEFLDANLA

Turning to `CC[P](CC)(CC)=[Au][S][C@@H]1O[C@H](COC(C)=O)[C@@H](OC(C)=O)[C@H](OC(C)=O)[C@H]1OC(C)=O` [auranofin], in test [1], the pIC50 was 5.95.
Turning to [Au(dppta)(mrdtc)][PF6] [compound 2], the pIC50 in test [2] is 5.72.
Same read-out and setting: then [Au(dppta)Cl2] [compound 1], with 5.88.

Values taken from PMC10272563, “Novel gold(III)-dithiocarbamate complex targeting bacterial thioredoxin reductase: antimicrobial activity, synergy, toxicity, and mechanistic insights” (Frontiers in Microbiology, 2023).
